Measured values as given in patent US11505797B2, “Gene knockout of variant NRF2 for treatment of cancer” (Christiana Care Health Services, Inc., priority 2019, dated 2022).
Several values for one entry are separate records, joined by “and”; a condition that tells them apart may be missing. Identical values can stand only once. Entries after “also recorded” stand apart in the source; their conditions may differ.

Assays:
[1] = tested on: wildtype NRF2 gene in NCI-H1703 cell line; experiment: TIDE analysis after transfection of R34G-targeting RNP, H1703 parental cells; type: cell-based, human
Method: (§1) The in vitro cleavage reactions were further assessed through cell based-experiments using the same cell lines: A549 and H1703 parental cell lines and the A549 R34G-6 cell line. The cell lines were cultured under the standard conditions and transfected by electroporation (Lonza, Nucleofection) using previously established parameters. FIGS. 27-29 depict the genetic analysis of eight separate experiments using all three cell lines after transfection of the R34G-targeting RNP. This experiment was conducted under three different conditions. The first condition was using an equimolar concentration of duplexed guide RNA to Cas9. The second condition was using five times the amount of duplexed guide RNA to Cas9, along with using a GFP (Green Fluorescent Protein) expression vector to measure transfection efficiency and to sort the GFP-positive population for further analysis. The third condition was using five times the amount of single guide RNA to Cas9, along with the GFP expression vector and sorting of the GFP-positive population for further analysis.
FIG. 29 depicts the genetic analysis after transfection of the R34G-targeting RNP in the NCI-H1703 cell line, which contains a wildtype NRF2 gene and no native CRISPR recognition site.

[2] = tested on: R34G-mutated NRF2 gene in A549 R34G-6 cells; experiment: TIDE analysis after transfection of R34G-targeting RNP, A549 R34G-6 cells; type: cell-based, human; conditions: GFP-positive sorted population
Method: as §1
FIG. 28 depicts the genetic analysis after transfection of the R34G-targeting RNP in the A549 R34G-mutated clonal cell line (A549 R34G-6). The A549 R34G-6 cells contain a heterozygous R34G mutation in exon 2 of the NRF2 gene, creating a new CRISPR recognition site for the R34G-targeting RNP. […] The significant total indel efficiency indicates the R34G-targeting RNP is very active. […] The lower R2 value indicates some of the sequence analysis is unaccounted for likely because of sequence quality. […] Although only a speculation, the R34G-targeting RNP does differentiate between the wildtype and R34G-mutated alleles within the clonal cell line.

[3] = tested on: wildtype NRF2 gene in A549 parental cells; experiment: TIDE analysis after transfection of R34G-targeting RNP, A549 parental cells; type: cell-based, human
Method: as §1
FIG. 27 depicts the genetic analysis after transfection of the R34G-targeting RNP in the A549 parental cells. The A549 parental cells contain a wildtype NRF2 gene therefore there is no native CRISPR/Cas9 recognition site for the R34G-targeting RNP. […]

[4] = tested on: wildtype NRF2 sequence; experiment: In vitro cleavage reaction, wildtype NRF2 amplicons; type: biochemical, human; conditions: A549 or H1703 parental amplicons, 0.5-5 pmol RNP, gel electrophoresis
Method: (§2) As proof of concept, an in vitro cleavage reaction was conducted to assess the level of discrimination using the R34G guide RNA in a ribonucleoprotein complex (RNP). The in vitro cleavage reaction encompasses complexing target specific-guide RNA with Cas9 protein to form a ribonucleoprotein (RNP). The RNP is incubated with DNA of interest (100 ng) and the reaction and cleavage products are visualized by gel electrophoresis. For this experiment, wildtype and R34G-mutated NRF2 PCR products (901 bp) from an NRF2 expression plasmid (FIG. 21) were incubated with R34G-targeting RNP complex (1 μM) and cleavage products were visualized by gel electrophoresis, shown in FIG. 22.
Once the sequences were verified, genomic DNA from each cell line was used to amplify exon 2 of NRF2. The PCR products (530 bp) from each cell line were then used in in vitro cleavage reactions under various parameters to test specificity and fidelity of the R34G-targeting RNP. For these cleavage reactions, expected cleavage products would appear at 385 and 145 bp as indicated by the red lines along the ladder, with uncut product appearing at 530 bp. FIG. 24 depicts the gel image from an in vitro cleavage reaction using wildtype NRF2 sequence from parental A549 cells and R34G-mutated NRF2 sequence from the A549 R34G-6 cells. […]

[5] = tested on: R34G-mutated NRF2 sequence; experiment: In vitro cleavage reaction, R34G-mutated NRF2 amplicons; type: biochemical, human; conditions: gel electrophoresis; for cleavage specificity, NRF2 expression plasmid and 901 bp amplicons: wildtype versus R34G NRF2, RNP 1 μM, DNA 100 ng
Method: as §2
Once the sequences were verified, genomic DNA from each cell line was used to amplify exon 2 of NRF2. The PCR products (530 bp) from each cell line were then used in in vitro cleavage reactions under various parameters to test specificity and fidelity of the R34G-targeting RNP. For these cleavage reactions, expected cleavage products would appear at 385 and 145 bp as indicated by the red lines along the ladder, with uncut product appearing at 530 bp. FIG. 24 depicts the gel image from an in vitro cleavage reaction using wildtype NRF2 sequence from parental A549 cells and R34G-mutated NRF2 sequence from the A549 R34G-6 cells. An increasing concentration (0.5-5 pmol) of R34G-targeting RNP was used to determine the threshold and fidelity of the sequence. […] Uncut product (top band, 530 bp) can still be seen in lanes 7-10, which corresponds to the heterozygosity of the R34G mutation in the A549 R34G-6 cell line. Therefore, the wildtype NRF2 allele in the A549 R34G-6 cell line acts as an internal negative control.
Another in vitro cleavage reaction was conducted to assess the cleavage efficiency of the wildtype NRF2 sequence to ensure the R34G-targeting RNP was, in fact, not cleaving the wildtype NRF2 sequence because of the lack of the R34G mutation. A guide RNA with a cut site 29 bp upstream (labeled Neh2 RNP) from the R34G RNP cut site was selected and used as a positive cleavage control. […] Lanes 1-8 were reactions using wildtype NRF2 sequence while lanes 9-16 were reactions using R34G-mutated NRF2 sequence. In lanes 2-4 and 10-12, PCR products were incubated with increasing concentrations (1, 3 & 5 pmol) of RNP targeting the beginning of exon 2 (Neh2 RNP). The Neh2 guide RNA sequence is: 5′ […] 3′ (SEQ ID NO:13) which is a native CRISPR site and used as the positive control for cleavage for these reactions. […] In lanes 6-8 and 14-16, PCR products were incubated with increasing concentrations (1, 3 & 5 pmol) of R34G-targeting RNP. […] This further reinforces the specificity of the R34G-targeting RNP only recognizing the target DNA in the presence of the R34G mutation in exon 2 of NRF2. […]

[6] = top panel, bulk unsorted population

## 5′ GATATAGATCTTGGAGTAAGTGG 3′ [R34G-targeting RNP]
[1]; bottom panel, GFP-sorted population
  total indel efficiency: 4.6%
[1]; [6]
  total indel efficiency: 0.0%
[2]; bottom panel
  total indel efficiency: 32.7%
[2]; middle panel
  sequence analyzed that is wildtype: 32.0%
  total indel efficiency: 55.7%
[3]; bottom panel, GFP-positive sorted population
  total indel efficiency: 11.4% and 11.3%
[3]; [6]
  total indel efficiency: 11.8% and 11.4%
[4]
  cleavage of wildtype NRF2 amplicon (530 bp): does not result in cleavage of wildtype NRF2 sequence; also recorded: minimal cleavage seen in lanes 6-8
[5]; A549 R34G-6 amplicon, 0.5-5 pmol RNP
  cleavage of R34G-mutated NRF2 amplicon (530 bp): cleavage products can be seen even with half of the standard concentration; also recorded: clearly seen
[5]
  cleavage specificity, NRF2 expression plasmid and 901 bp amplicons: only recognizes and cleaves the mutated DNA sequence
[5]; listed as R34G RNP
  cleavage specificity, NRF2 expression plasmid and 901 bp amplicons: only recognizes and cleaves with the mutation present
